Test results reported in patent publication EP0063238A1, “An efficiency-improving agent for feed and a preventive and treating agent for coccidiosis” (KAKEN PHARMACEUTICAL CO., LTD., priority 1981, dated 1982).

How the values were obtained:
[1] = Feed efficiency test on domestic fowls; assay type: in vivo; conditions: 70 days; for The average increase in the body weight during the test period / The average ingested amount of feed during the test period: chickens; for The rate of feed requirement: ingested feed / body weight increase; for The improved ratio of the rate of feed requirement: versus no addition
Protocol: Feed efficiency test on domestic fowls
Domestic fowls tested: species used exclusively for broiler (Aber Acres species) Basal feed:
Method: • Fifty newborn chickens were divided into 5 groups of 10 each in such a way that the average body weight is the same in each group. Premixes of 5057A and 5057B were added to the foregoing basal feed so that the contents of 5057A and 5057B are .40 ppm and 80 ppm, respectively. This feed was administered to the animals over the period of 70 days, and the body weight and the ingested amount of the feed were measured.

Eimeria tenellum = experiment: Preventive and treating activity against coccidiosis in a domestic fowl; assay type: in vivo; conditions: for Relation rate of the increase in the body weight: noninfection control = 100; for OPG: number of oocysts in 1 g of stool, 7 days after the inoculation; for Death rate: white leghorn chickens inoculated p.o. with oocysts; for preventive and treating activity against coccidiosis: conclusion in text from Table 5
Protocol: The preventive and treating activity against coccidiosis in a domestic fowl Domestic fowls tested: white leghorns Basal feed:
Method: • Fifty male white leghorn chickensl4 days of age were divided into 5 groups of 10 each. To the basal feed were added 50 and 100 ppm each of 5057A and 5057B. Infection with coccidiosis was done by inoculating […] per chicken of spore-forming oocysts of Eimeria tenellum directly p.o. into the crop of the chickens.
Groupsl - 4 were reared with the feeds containing predetermined concentrations of the 5057 substances, starting from 1 day before the inoculation with oocysts. Group 5 is an infection control that was inoculated with oocysts and reared with the basal feed containing no agents tested and Group 6 is a noninfection control. After 7 days after the inoculation with oocysts, the number of oocysts (OPG) in 1 g of stool was counted.

[2] = Feed efficiency test on a ruminant; assay type: in vivo, Cattle (Holstein); conditions: 240 days; for The average increase in the body weight during the test period: castrated Holstein oxen; for The improved ratio of the rate of concentrated feed requirement: versus no addition
Protocol: Feed efficiency test on a ruminant Cattle tested: Holstein
Basal feed: • Concentrated feed: [formula]
(§1) Method: • Twenty five castrated Holstein oxen 9 months of age were divided into 5 groups of 5 each in such a way that the average body weight is almost the same in each group. Concentrated basal feeds to which 0, 10, and 20 ppm each of 5057A and 5057B had been added were each administered over the period of 240 days. As a crude feed, 1 kg per animal of straw of rice plants were administered.

Acute toxicity test = conditions: mouse, in vivo, mice
Protocol: An acute toxicity test was carried out with mice. As a result, the LD50 value of the 5057A and 5057B substances is 50 mg/kg i.p. and 50 mg/kg or more p.o. [drawing 14] [drawing 15]

[3] = Propionic acid/acetic acid ratio in gastric juice from the rumen of the oxen tested; assay type: in vivo, Cattle (Holstein); conditions: for The propionic acid concentration/The acetic acid concentration (the average value): rumen gastric juice; for ratio between propionic acid/acetic acid in the gastric juice in the rumen: as compared with the case of no addition
Protocol: as §1
The administration of the feeds to which the present substances had been added improved the utilization rate of the concentrated feed by 10 - 17% and the increased amount of the body weight by 3 - 8%. The gastric juice from the rumen of the oxen tested was collected and measured for the concentrations of acetic and propionic acids, thus the ratio between them being calculated.

[4] = Feed efficiency test on swine; assay type: in vivo, swine (landrace); conditions: for The rate of feed requirement / The average increase in the body weight during the test period / The average ingested amount of feed during the test period / The improved ratio of the rate of feed requirement: 12 weeks; for The average increase in the body weight during the test period / The average ingested amount of feed during the test period: young pigs; for The improved ratio of the rate of feed requirement: versus no addition; for The total number of days of diarrheal stool in each group / The total number of days during the test period in each group: 6 pigs, period of 4 weeks
Protocol: Feed efficiency test on swine
Method: • Thirty young pigs were divided into 5 groups of 6 each in such a way that the average body weight is the same in each group. To the basal feed were added 0, 25, and 50 ppm each of 5057A and 5057B. The resulting basal feeds were administered over the period of 12 weeks and the body weight and the ingested amount of the feeds were measured. The total number of days that the pigs suffered from diarrhea during the period of 4 weeks was counted.

[5] = 10 ppm, 1 day after the administration
[6] = 10 ppm, 21 days after the administration
[7] = 10 ppm, 56 days after the administration
[8] = 20 ppm, 1 day after the administration
[9] = 20 ppm, 21 days after the administration
[10] = 20 ppm, 56 days after the administration

## CCC(C(=O)C(C)C(O)C(C)C1OC(O)(C(C)C(=O)O)C(C)CC1C)C1OC(C)(C2(O)OC(CC)(C(C)O)CC2C)CC1C (stereo not drawn) [5057A]
[1]; 40 ppm in feed
  The average increase in the body weight during the test period: 2.54 kg
  The average ingested amount of feed during the test period: 5.59 kg
  The rate of feed requirement: 2.201
  The improved ratio of the rate of feed requirement: 4.3%
[1]; 80 ppm in feed
  The average increase in the body weight during the test period: 2.55 kg
  The average ingested amount of feed during the test period: 5.63 kg
  The rate of feed requirement: 2.218
  The improved ratio of the rate of feed requirement: 4.0%
Eimeria tenellum; 50 ppm in feed
  Relation rate of the increase in the body weight: 104%
  OPG: 0.01 x 10^4
  Death rate: 0%
Eimeria tenellum; 100 ppm in feed
  Relation rate of the increase in the body weight: 103%
  OPG: 0 x 10^4
  Death rate: 0%
Eimeria tenellum
  preventive and treating activity against coccidiosis: have a preventive and treating activity against coccidiosis
[2]; 10 ppm in concentrated feed
  The average ingested amount of concentrated feed during the test period: 2413 kg
  The rate of concentrated feed requirement: 8.904
  The average increase in the body weight during the test period: 271 kg
  The improved ratio of the rate of concentrated feed requirement: 10.2%
[2]; 20 ppm in concentrated feed
  The average ingested amount of concentrated feed during the test period: 2365 kg
  The rate of concentrated feed requirement: 8.446
  The average increase in the body weight during the test period: 280 kg
  The improved ratio of the rate of concentrated feed requirement: 14.8%
Acute toxicity test; ip
  LD50: 50 mg/kg
Acute toxicity test; po
  LD50: ≥ 50 mg/kg
[3]; [5]
  The propionic acid concentration/The acetic acid concentration (the average value): 0.80
[3]; [6]
  The propionic acid concentration/The acetic acid concentration (the average value): 0.73
[3]; [7]
  The propionic acid concentration/The acetic acid concentration (the average value): 0.78
[3]; [8]
  The propionic acid concentration/The acetic acid concentration (the average value): 0.83
[3]; [9]
  The propionic acid concentration/The acetic acid concentration (the average value): 0.96
[3]; [10]
  The propionic acid concentration/The acetic acid concentration (the average value): 0.86
[3]
  ratio between propionic acid/acetic acid in the gastric juice in the rumen: increases
[4]; 25 ppm in feed
  The rate of feed requirement: 2.353
  The average increase in the body weight during the test period: 45.35 kg
  The average ingested amount of feed during the test period: 106.7 kg
  The improved ratio of the rate of feed requirement: 4.3%
  The total number of days of diarrheal stool in each group / The total number of days during the test period in each group: 21/168
[4]; 50 ppm in feed
  The rate of feed requirement: 2.287
  The average increase in the body weight during the test period: 50.93 kg
  The average ingested amount of feed during the test period: 116.5 kg
  The improved ratio of the rate of feed requirement: 7.0%
  The total number of days of diarrheal stool in each group / The total number of days during the test period in each group: 11/168

## CCC(C(=O)C(C)C(O)C(C)C1OC(O)(C(C)C(=O)O)C(C)CC1C)C1OC(C)(C2(O)OC(CC)(C(O)CC)CC2C)CC1C (stereo not drawn) [5057B]
[1]; 40 ppm in feed
  The average increase in the body weight during the test period: 2.67 kg
  The average ingested amount of feed during the test period: 5.74 kg
  The rate of feed requirement: 2.150
  The improved ratio of the rate of feed requirement: 6.6%
[1]; 80 ppm in feed
  The average increase in the body weight during the test period: 2.62 kg
  The average ingested amount of feed during the test period: 5.67 kg
  The rate of feed requirement: 2.164
  The improved ratio of the rate of feed requirement: 6.0%
Eimeria tenellum; 50 ppm in feed
  Relation rate of the increase in the body weight: 106%
  OPG: 0 x 10^4
  Death rate: 0%
Eimeria tenellum; 100 ppm in feed
  Relation rate of the increase in the body weight: 106%
  OPG: 0 x 10^4
  Death rate: 0%
Eimeria tenellum
  preventive and treating activity against coccidiosis: have a preventive and treating activity against coccidiosis
[2]; 10 ppm in concentrated feed
  The average ingested amount of concentrated feed during the test period: 2406 kg
  The rate of concentrated feed requirement: 8.813
  The average increase in the body weight during the test period: 273 kg
  The improved ratio of the rate of concentrated feed requirement: 11.1%
[2]; 20 ppm in concentrated feed
  The average ingested amount of concentrated feed during the test period: 2354 kg
  The rate of concentrated feed requirement: 8.289
  The average increase in the body weight during the test period: 284 kg
  The improved ratio of the rate of concentrated feed requirement: 16.4%
Acute toxicity test; ip
  LD50: 50 mg/kg
Acute toxicity test; po
  LD50: ≥ 50 mg/kg
[3]; [5]
  The propionic acid concentration/The acetic acid concentration (the average value): 0.79
[3]; [6]
  The propionic acid concentration/The acetic acid concentration (the average value): 0.76
[3]; [7]
  The propionic acid concentration/The acetic acid concentration (the average value): 0.77
[3]; [8]
  The propionic acid concentration/The acetic acid concentration (the average value): 0.83
[3]; [9]
  The propionic acid concentration/The acetic acid concentration (the average value): 1.00
[3]; [10]
  The propionic acid concentration/The acetic acid concentration (the average value): 0.93
[3]
  ratio between propionic acid/acetic acid in the gastric juice in the rumen: increases
[4]; 25 ppm in feed
  The rate of feed requirement: 2.348
  The average increase in the body weight during the test period: 47.62 kg
  The average ingested amount of feed during the test period: 111.8 kg
  The improved ratio of the rate of feed requirement: 4.6%
  The total number of days of diarrheal stool in each group / The total number of days during the test period in each group: 18/168
[4]; 50 ppm in feed
  The rate of feed requirement: 2.263
  The average increase in the body weight during the test period: 51.26 kg
  The average ingested amount of feed during the test period: 116.0 kg
  The improved ratio of the rate of feed requirement: 8.0%
  The total number of days of diarrheal stool in each group / The total number of days during the test period in each group: 6/168
